This is an account of results in article PMC8285423, “In vitro efficacy of artemisinin-based treatments against SARS-CoV-2” (Scientific Reports, 2021).

Values after ≈ are worked out from the molar mass of the structure shown. A value given as a limit tells only on which side of the number the result lay.

Series [1] has as its system SARS-CoV-2/human/Denmark/DK-AHH1/2020. As to the kind of experiment: microbe, parasite or virus in culture. The conditions noted are these: for EC50: Severe acute respiratory syndrome coronavirus 2, 48 h. Format: cell-based.
A short description of series [2]: Cell viability assay (CellTiter 96 AQueous One) in A549-hACE2 cells. Format: cell-based. The note with it: human, no infection.
The test system of series [3] is SARS-CoV-2/human/Denmark/DK-AHH1/2020. The series can be described thus: microbe, parasite or virus in culture. It counts as cell-based.
The subject of series [4] is SARS-CoV-2. The series can be described thus: Treatment assays summarised over different cell types (VeroE6, Huh7.5, A549-hACE2). The conditions noted are these: Severe acute respiratory syndrome coronavirus 2, VeroE6, Huh7.5, A549-hACE2 cells, read-out: range of 50% effective concentrations (EC50) in different cell types. Format: cell-based.
In series [5] the test system is SARS-CoV-2/human/Denmark/DK-AHH1/2020. The series can be described thus: Concentration–response treatment antiviral assay in VeroE6 cells (spike immunostaining). The note with it: for EC50: Severe acute respiratory syndrome coronavirus 2, Vero C1008; for concentration at which almost / close to complete virus inhibition was achieved: treatment assay. It counts as cell-based.

A short description of series [6]: in vitro. The note with it: African green monkey.
Procedure: (§1) To evaluate cytotoxic effects of the tested extracts, compounds, and diluents (DMSO), cell viability was monitored using the CellTiter 96 AQueous One Solution Cell Proliferation Assay (Promega, Madison, WI, USA). VeroE6 cells, Huh7.5 cells or A549-hACE2 cells were plated at 10,000, 8000 or 10,000 cells per well of flat bottom 96-well plates, respectively (Thermo Fisher Scientific, Roskilde, Denmark). The next day, medium was exchanged to contain specified concentrations of extracts or compounds or dilutions of DMSO adding 100 µL per well. Each concentration or dilution was tested in 3 replicates; at least 6 nontreated control wells were included in the assay. For VeroE6 cells and A549-hACE2 cells, after 48 ± 2 h, and for Huh7.5 cells, after 72 ± 2 h of incubation at 37 °C and 5% CO2, 20 µL CellTiter 96 AQueous One Solution Reagent was added per well and plates were incubated for 1.5 to 2 h at 37 °C and 5% CO2, prior to recording absorbance at 492 nm using a FLUOstar OPTIMA 96-well plate reader (BMG LABTECH, Offenburg, Germany). Absorbance recorded in each well was related to the average absorbance of nontreated control wells to calculate the percentage of cell viability. Datapoints included in figures are means of triplicates from one independent experiment with SEM. Sigmoidal dose response curves were fitted and median cytotoxic concentration (CC50) values were calculated with GraphPad Prism 8.0.0 using a bottom constraint of 0 and the formula Y = Top/(1 + 10^((LogCC50-X) * HillSlope)) as further specified in Figures S5, S7, and S9.
Series [7] has as its system SARS-CoV-2/human/Denmark/DK-AHH1/2020. The series can be described thus: Concentration–response pretreatment antiviral assay in VeroE6 cells (spike immunostaining). Format: cell-based. The conditions noted are these: for EC50: Severe acute respiratory syndrome coronavirus 2, Vero C1008, added 1.5 h prior to infection, 2-day incubation.
Series [8] can be described thus: Cell viability assay (CellTiter 96 AQueous One) in Huh7.5 cells. The conditions noted are these: human.
Procedure: as §1
The nature of series [9]: Cell viability assay (CellTiter 96 AQueous One) in VeroE6 cells. The note with it: African green monkey.
Procedure: as §1
Series [10] concerns SARS-CoV-2/human/Germany/BavPat 1/2020. As to the kind of experiment: Plaque reduction antiviral assay (pretreatment) in VeroE6 cells. The note with it: addition prior to virus addition. It counts as cell-based.
In series [11] the test system is SARS-CoV-2 isolate from Wuhan. The arrangement: method as in earlier work. The conditions noted are these: VeroE6 cells, assay terminated 24 h post infection, ref 22 (Cao et al.); cited from earlier work.
The test system of series [12] is SARS-CoV-2/human/Denmark/DK-AHH1/2020. As to the kind of experiment: Time-of-addition experiment with artesunate in A549-hACE2 cells. Format: cell-based. The note with it: for inhibition at 14 µg/mL: read-out: inhibition of viral infection.
For series [13] the following is noted: animal studies; single dose; cited from earlier work.
[14] abbreviates: VeroE6 cells, added 1 h post infection, 2-day incubation, read-out: EC50 Treatment assay.
The mark [15] stands for this setting: A549-hACE2 cells, treatment assay, added directly after inoculation, 2-day incubation, read-out: EC50.
Where [16] appears, read: Severe acute respiratory syndrome coronavirus 2, 72 h, Huh7.5 cells, treatment assay, added directly after inoculation, 3-day incubation, read-out: EC50.

As for `CO[C@H]1O[C@@H]2O[C@@]3(C)CC[C@H]4[C@H](C)CC[C@@H]([C@H]1C)[C@@]24OO3` [Artemether], in series [1] (A549-hACE2 cells, treatment assay), the “concentration with close to complete virus inhibition” value was determined as 92 µg/mL. For the same compound, the EC50 in series [1] was 53 µg/mL (≈ 178 µM); in series [3] (Severe acute respiratory syndrome coronavirus 2, Huh7.5, 72 h), 64 µg/mL (≈ 214 µM); in [4] it was 53 to 98 µg/mL (≈ 178 to 328 µM); in series [5] (setting [14]), 98 µg/mL; in series [7], 147 µg/mL (≈ 493 µM). Besides, the CC50 at 48 h in series [2] was determined as 380 µg/mL (≈ 1270 µM); in [6], 360 µg/mL (≈ 1210 µM). Besides, the inhibition at 65 µg/mL in series [3] (Severe acute respiratory syndrome coronavirus 2, Huh7.5, read-out: virus inhibition) amounted to 56%. Further, the “concentration at which almost / close to complete virus inhibition was achieved” value in [5] (VeroE6 cells) is listed as no less than 153 µg/mL. The inhibition at 153 µg/mL in series [7] (Severe acute respiratory syndrome coronavirus 2, Vero C1008, pretreatment assay, 153 µg/mL, read-out: virus inhibition) is 52%. The compound also yielded a CC50 at 72 h in series [8] of 127 µg/mL (≈ 426 µM).

As to `C[C@@H]1CC[C@H]2[C@@H](C)C(=O)O[C@@H]3O[C@@]4(C)CC[C@@H]1[C@]32OO4` [Artemisinin], the figures for the CC50 at 48 h in series [9] and in [2] were 8220 µg/mL (≈ 29100 µM) and 1530 µg/mL (≈ 5410 µM), respectively. Moreover, the EC50 in series [1] (setting [15]) is 168 µg/mL (≈ 595 µM); in series [3] (setting [16]) it was greater than 208 µg/mL; in [5] (setting [14]), 151 µg/mL; in series [7], 238 µg/mL (≈ 843 µM). In [3] (Huh7.5 cells, treatment assay, highest evaluated (non-cytotoxic) concentration 208 µg/mL), the virus inhibition result is given as “no significant virus inhibition”. This compound also registered an inhibition at 208 µg/mL in [3] (Severe acute respiratory syndrome coronavirus 2, Huh7.5 cells, treatment assay, highest evaluated (non-cytotoxic) concentration 208 µg/mL) of less than 50%. Also, the figures for the “concentration at which almost / close to complete virus inhibition was achieved” value in series [5] (VeroE6 cells) and in series [7] (pretreatment assay) were 1208 µg/mL and 893 µg/mL, respectively. Besides, the “effect on plaque formation (in words)” value in series [10] is “little antiviral activity”. The same compound returned a CC50 at 72 h in series [8] of 5070 µg/mL (≈ 17900 µM).

With `C[C@H]1[C@H](OC(=O)CCC(=O)O)O[C@@H]2O[C@@]3(C)CC[C@H]4[C@H](C)CC[C@@H]1[C@@]24OO3` [Artesunate], the CC50 at 48 h in series [9] came to 41 µg/mL (≈ 107 µM); in [2] it was 27 µg/mL (≈ 70.2 µM). Further, the EC50 in series [11] was 13 µM; in [1] (setting [15]), 12 µg/mL (≈ 31.2 µM); in series [3] (setting [16]), 11 µg/mL (≈ 28.6 µM); in series [4], 7 to 12 µg/mL (≈ 18.2 to 31.2 µM); in [5] (setting [14]), 7 µg/mL; in series [5] (VeroE6 treatment assay, read-out: EC50) it was 18 µM. The inhibition at 14 µg/mL in series [1] (Severe acute respiratory syndrome coronavirus 2, A549-hACE2 cells, treatment assay, highest evaluated concentration 14 µg/mL) is 63%; in series [12] (Severe acute respiratory syndrome coronavirus 2, added 2 h post inoculation), no less than 80%; in series [12] (Severe acute respiratory syndrome coronavirus 2, added 4 h post inoculation), no less than 80%; in series [12] (Severe acute respiratory syndrome coronavirus 2, added 6 h post inoculation), no less than 80%. The “concentration with close to complete virus inhibition” value in series [3] (Huh7.5 cells, treatment assay) was found to be 22 µg/mL. In series [5] (VeroE6 cells), the “concentration at which almost / close to complete virus inhibition was achieved” value is on record as 15 µg/mL. Moreover, the inhibition at 15 µg/mL in series [7] (Severe acute respiratory syndrome coronavirus 2, Vero C1008, pretreatment assay, 15 µg/mL (highest evaluated concentration), read-out: virus inhibition) was found to be 69%. The CC50 at 72 h in series [8] came out at 93 µg/mL (≈ 242 µM). Moreover, in [12] (14 µg/mL, added 0 h post inoculation, present during the 2 h viral infection phase), the “inhibition of viral infection” value is “did not result in inhibition”. For the same compound, the “tissue concentrations (lung, kidney, intestine, spleen) versus plasma concentrations” value in series [13] was “several-fold higher”.
